Nine compounds from patent US11407754B2, “Substituted piperidines as kinase inhibitors” (Daewoong Pharmaceutical Co., Ltd., priority 2017, dated 2022) can be followed below.

The term IC50 denotes the concentration that gives 50% inhibition.

Assay [1] has as its target human BTK (Homo sapiens (Human), UniProt Q06187). Kind of assay: BTK kinase inhibitory activity, ADP Glo assay. Conditions: read-out: BTK IC50, recombinant human BTK, ATP 10 uM. For orientation: ADP-Glo turns the ADP formed in a reaction into a luminescent signal.
In assay [2] the target is human JAK3 (Homo sapiens (Human), UniProt P52333). The assay can be described thus: JAK3 kinase inhibitory activity, ADP Glo assay. The following applies: read-out: JAK3 IC50, recombinant human JAK3, ATP 5 uM.
For assay [3], the system named is JAK3. The assay can be described thus: JAK3-mediated cell assay (HT-2/IL-2 assay), STAT5 phosphorylation. The assay is classed as cell-based. The following applies: HT2; STAT5 phosphorylation induced by IL-2 (20 ng/ml) in HT-2 cells, HTRF. Here is the method:
The inhibitory activities against JAK3 kinase at the cellular level were measured for the compounds prepared in the Examples through in vitro analysis of STAT5 phosphorylation induced by IL-2 stimulation in HT-2 cells. Specifically, STAT5 phosphorylation was analyzed using HTRF® phospho-STAT5 (Tyr694) assay kit (Cisbio, 64AT5PEG), which was purchased from Cisbio. HT-2 cells were cultured for 2 hours in growth factor-free medium. The cultured HT-2 cells were dispensed into 96-well plates by 50 ul so as to be a density of 2.5×10^5 cells/well. The compounds prepared in the previous Examples were prepared so as to be finally a 0.3% DMSO aqueous solution, and HT-2 cells was treated with the compounds for 30 minutes. After the compound treatment, IL-2 was prepared so as to be finally a concentration of 20 ng/ml, and HT-2 cells was treated for 10 minutes. The cells were then disrupted by treating lysis buffers for 30 minutes. The level of STAT5 phosphorylation was measured according to the instructions of HTRF® phospho-STAT5 assay kit, and the inhibitory activity of the compounds according to the invention was calculated. For the analysis of the results of each compound, Microsoft Excel was used, and IC50 values were calculated by SigmaPlot software.
On the technique in general: Time-resolved FRET reads energy transfer from a long-lived donor to a nearby acceptor.

Sequence of human BTK (Q06187 whole entry): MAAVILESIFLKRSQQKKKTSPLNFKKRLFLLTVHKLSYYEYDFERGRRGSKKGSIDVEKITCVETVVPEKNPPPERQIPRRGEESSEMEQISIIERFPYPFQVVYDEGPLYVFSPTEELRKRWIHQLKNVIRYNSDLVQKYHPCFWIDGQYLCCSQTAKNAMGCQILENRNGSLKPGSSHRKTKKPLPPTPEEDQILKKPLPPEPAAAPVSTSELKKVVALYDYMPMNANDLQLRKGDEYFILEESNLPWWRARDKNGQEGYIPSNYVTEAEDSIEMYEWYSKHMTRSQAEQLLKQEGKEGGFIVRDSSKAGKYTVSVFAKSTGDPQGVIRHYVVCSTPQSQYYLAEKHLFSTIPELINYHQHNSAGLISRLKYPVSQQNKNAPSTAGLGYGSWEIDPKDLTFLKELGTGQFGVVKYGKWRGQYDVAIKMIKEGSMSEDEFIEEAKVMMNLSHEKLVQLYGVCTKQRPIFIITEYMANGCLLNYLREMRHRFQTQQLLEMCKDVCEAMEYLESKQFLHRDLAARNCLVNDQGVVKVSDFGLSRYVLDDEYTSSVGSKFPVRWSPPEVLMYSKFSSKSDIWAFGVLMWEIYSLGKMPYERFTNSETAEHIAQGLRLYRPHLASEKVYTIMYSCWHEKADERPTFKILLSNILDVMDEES
Sequence of human JAK3 (P52333 whole entry): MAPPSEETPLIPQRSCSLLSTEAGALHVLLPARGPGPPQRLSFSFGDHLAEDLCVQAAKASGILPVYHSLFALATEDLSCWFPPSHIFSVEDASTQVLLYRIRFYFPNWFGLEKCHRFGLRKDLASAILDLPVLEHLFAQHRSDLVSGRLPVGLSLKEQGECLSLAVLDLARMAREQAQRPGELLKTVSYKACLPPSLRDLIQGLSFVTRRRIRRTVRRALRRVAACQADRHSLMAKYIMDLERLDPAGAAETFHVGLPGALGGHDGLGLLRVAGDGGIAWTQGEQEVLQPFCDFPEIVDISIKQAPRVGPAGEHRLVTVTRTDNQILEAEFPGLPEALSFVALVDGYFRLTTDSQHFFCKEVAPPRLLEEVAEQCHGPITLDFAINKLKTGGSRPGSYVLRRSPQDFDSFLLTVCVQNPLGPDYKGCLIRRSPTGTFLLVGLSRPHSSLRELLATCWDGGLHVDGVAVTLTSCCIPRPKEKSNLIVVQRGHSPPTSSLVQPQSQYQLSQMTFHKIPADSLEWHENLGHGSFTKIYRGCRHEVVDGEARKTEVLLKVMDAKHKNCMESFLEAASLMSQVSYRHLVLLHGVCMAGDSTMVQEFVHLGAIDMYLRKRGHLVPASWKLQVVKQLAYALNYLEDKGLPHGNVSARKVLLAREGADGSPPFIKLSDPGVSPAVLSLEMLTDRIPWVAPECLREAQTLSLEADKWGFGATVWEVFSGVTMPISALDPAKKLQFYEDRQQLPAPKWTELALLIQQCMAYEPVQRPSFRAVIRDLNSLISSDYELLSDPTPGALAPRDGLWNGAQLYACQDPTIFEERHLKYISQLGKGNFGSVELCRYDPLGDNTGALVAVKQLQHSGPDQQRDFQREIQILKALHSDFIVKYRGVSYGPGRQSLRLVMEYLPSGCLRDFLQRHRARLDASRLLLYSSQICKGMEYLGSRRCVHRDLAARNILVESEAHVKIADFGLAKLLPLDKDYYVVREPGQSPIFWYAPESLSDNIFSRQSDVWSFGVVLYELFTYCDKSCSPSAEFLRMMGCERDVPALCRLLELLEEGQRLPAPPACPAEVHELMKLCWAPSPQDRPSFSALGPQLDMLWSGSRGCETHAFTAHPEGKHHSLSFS

Take `C=CC(=O)N1C[C@H](Nc2nc(Nc3cnn(CC)c3)nc3[nH]cc(Cl)c23)CC[C@@H]1C` [Example 1, 1-((2S,5R)-5-((5-chloro-2-((1-ethyl-1H-pyrazol-4-yl)amino)-7H-pyrrolo[2,3-d]pyrimidin-4-yl)amino)-2-methylpiperidin-1-yl)prop-2-en-1-one]: the values for the IC50 in assay [1], in assay [2] and in assay [3] were 1.2 nM, 0.3 nM and 90.9 nM, respectively.
The like results for `C=CC(=O)N1C[C@H](Nc2nc(Nc3cnn(CC)c3)nc3[nH]ccc23)CC[C@@H]1C` [Example 2, 1-((2S,5R)-5-((2-((1-ethyl-1H-pyrazol-4-yl)amino)-7H-pyrrolo[2,3-d]pyrimidin-4-yl)amino)-2-methylpiperidin-1-yl)prop-2-en-1-one] were, in that order, 1.3 nM, 0.4 nM and 360 nM.
For `C=CC(=O)N1C[C@H](Nc2nc(Nc3cnn(CC(C)C)c3)nc3[nH]ccc23)CC[C@@H]1C` [Example 3, 1-((2S,5R)-5-((2-((1-isobutyl-1H-pyrazol-4-yl)amino)-7H-pyrrolo[2,3-d]pyrimidin-4-yl)amino)-2-methylpiperidin-1-yl)prop-2-en-1-one], the IC50 in assay [1] turned out to be 3.5 nM; in assay [2], 1.8 nM.
Taken in the same sequence, the figures for `C=CC(=O)N1C[C@H](Nc2nc(Nc3cnn(C4CCCC4)c3)nc3[nH]ccc23)CC[C@@H]1C` [Example 4, 1-((2S,5R)-5-((2-((1-cyclopentyl-1H-pyrazol-4-yl)amino)-7H-pyrrolo[2,3-d]pyrimidin-4-yl)amino)-2-methylpiperidin-1-yl)prop-2-en-1-one] were 5.4 nM and 2.2 nM.
Taken in the same sequence, the figures for `C=CC(=O)N1C[C@H](Nc2nc(Nc3cnn(CCNC(=O)OC(C)(C)C)c3)nc3[nH]ccc23)CC[C@@H]1C` [Example 5] were 5.3 nM and 1.2 nM.
Taken in the same sequence, the figures for `C=CC(=O)N1C[C@H](Nc2nc(Nc3cnsc3)nc3[nH]cc(Cl)c23)CC[C@@H]1C` [Example 6] were 3.4 nM and 0.6 nM.
Regarding `C=CC(=O)N1C[C@H](Nc2nc(Nc3cnn(CC(F)F)c3)nc3[nH]cc(Cl)c23)CC[C@@H]1C` [Example 7, 1-((2S,5R)-5-((5-chloro-2-((1-(2,2-difluoroethyl)-1H-pyrazol-4-yl)amino)-7H-pyrrolo[2,3-d]pyrimidin-4-yl)amino)-2-methylpiperidin-1-yl)prop-2-en-1-one], the IC50 in assay [1] is 1.6 nM; in assay [2], 0.3 nM.
The like results for `C=CC(=O)N1C[C@H](Nc2nc(Nc3cnn(C4CC4)c3)nc3[nH]cc(Cl)c23)CC[C@@H]1C` [Example 9, 1-((2S,5R)-5-((5-chloro-2-((1-cyclopropyl-1H-pyrazol-4-yl)amino)-7H-pyrrolo[2,3-d]pyrimidin-4-yl)amino)-2-methylpiperidin-1-yl)prop-2-en-1-one] were, in that order, 2 nM and 0.3 nM.
The like results for `C=CC(=O)N1C[C@H](N(C)c2nc(Nc3cnn(CC)c3)nc3[nH]nc(Cl)c23)CC[C@@H]1C` [Example 11, 1-((2S,5R)-5-((3-chloro-6-((1-ethyl-1H-pyrazol-4-yl)amino)-1H-pyrazolo[3,4-d]pyrimidin-4-yl)(methyl)amino)-2-methylpiperidin-1-yl)prop-2-en-1-one] were, in that order, 0.9 nM and 5.7 nM.
